Source: patent EP4722207A1, “OXOISOINDOLINYL-SUBSTITUTED TETRAHYDROPYRIMIDINEDIONE DERIVATIVE AND USE THEREOF” (Gluetacs Therapeutics (Shanghai) Co., Ltd., priority 2023, dated 2024)

Experiments:
WEE1 = target: T1, WEE1 (Homo sapiens, UniProt P30291+Q96SW2); assay: Western-blot assay, substrate protein degradation in hPBMCs: WEE1; assay type: cell-based; details: for WEE1 substrate protein remaining %: compounds at 50 nM and 500 nM, 24 hours
T1 construct: effects of the compounds of the present disclosure on the expression of target proteins in cells; endogenous in cells; host or cells: human PBMCs (hPBMCs)

IKZF1 = target: T2, IKZF1 (Homo sapiens, UniProt Q13422+Q96SW2); assay: Western-blot assay, substrate protein degradation in hPBMCs: IKZF1; assay type: cell-based; details: for IKZF1 substrate protein remaining %: compounds at 50 nM and 500 nM, 24 hours
T2 construct: effects of the compounds of the present disclosure on the expression of target proteins in cells; endogenous in cells; host or cells: human PBMCs (hPBMCs)

IKZF2 = target: T3, IKZF2 (Homo sapiens, UniProt Q96SW2+Q9UKS7); assay: Western-blot assay, substrate protein degradation in hPBMCs: IKZF2; assay type: cell-based; details: for IKZF2 substrate protein remaining %: compounds at 50 nM and 500 nM, 24 hours
T3 construct: effects of the compounds of the present disclosure on the expression of target proteins in cells; endogenous in cells; host or cells: human PBMCs (hPBMCs)

IKZF3 = target: T4, IKZF3 (Homo sapiens, UniProt Q96SW2+Q9UKT9); assay: Western-blot assay, substrate protein degradation in hPBMCs: IKZF3; assay type: cell-based; details: for IKZF3 substrate protein remaining %: compounds at 50 nM and 500 nM, 24 hours
T4 construct: effects of the compounds of the present disclosure on the expression of target proteins in cells; endogenous in cells; host or cells: human PBMCs (hPBMCs)

CK1α = target: T5, CK1α (Homo sapiens, UniProt P48729+Q96SW2); assay: Western-blot assay, substrate protein degradation in hPBMCs: CK1α; assay type: cell-based; details: for CK1α substrate protein remaining %: compounds at 50 nM and 500 nM, 24 hours
T5 construct: effects of the compounds of the present disclosure on the expression of target proteins in cells; endogenous in cells; host or cells: human PBMCs (hPBMCs)

GSPT1 = target: T6, GSPT1 (Homo sapiens, UniProt P15170+Q96SW2); assay: Western-blot assay, substrate protein degradation in hPBMCs: GSPT1; assay type: cell-based; details: for GSPT1 substrate protein remaining %: compounds at 50 nM and 500 nM, 24 hours
T6 construct: effects of the compounds of the present disclosure on the expression of target proteins in cells; endogenous in cells; host or cells: human PBMCs (hPBMCs)

MM.1S = assay: Cell viability assay (CellTiter-Meiluncell Luminescent), tumor cell proliferation, MM.1S; details: Homo sapiens, MM1.S, 96 h
Jurkat = assay: Cell viability assay (CellTiter-Meiluncell Luminescent), tumor cell proliferation, Jurkat; details: Homo sapiens, 96 h, read-out: inhibitory activity (IC50, nM) against tumor cells proliferation, Jurkat
MV-4-11 = assay: Cell viability assay (CellTiter-Meiluncell Luminescent), tumor cell proliferation, MV-4-11; details: Homo sapiens, MV4-11, 96 h; for IC50: read-out: inhibitory activity (IC50, nM) against tumor cells proliferation, MV-4-11
Procedure: The tumor cells used herein were cultured in a cell culture medium listed in table 2 at 37°C in an incubator with 5% CO2. Prior to experimentation, all cell lines used were correctly identified by STR profiling, and tested negative for mycoplasma contamination using a mycoplasma detection kit through routine screenings.
On the following day, the test compounds of the present disclosure were subjected to serial dilution. […] Subsequently, 0.5 µL of the test compound dilution was transferred into the 96-well plate containing the cells, with each well containing 100 µL of cell culture medium. […] Into the 96-well plate, the diluted test compounds and corresponding detection reagents were added, resulting in final test compound concentrations of 500 nM and 10 nM, respectively. The experimental procedure is described below using the diluted 2 µM test compound as an example.
After the cells were treated with the compounds of the present disclosure for a specified period, the cell viability assay reagent was added to the culture medium according to the kit's instructions to determine cell viability. […] All controls were treated using the same procedure as the compounds of the present disclosure. The growth inhibition curves for the compounds of the present disclosure were plotted using Prism GraphPad software, and the IC50 values were calculated therefrom.

H292 = assay: Cell viability assay (CellTiter-Meiluncell Luminescent), tumor cell proliferation, H292; details: Homo sapiens, NCI-H292, 96 h
H2228 = assay: Cell viability assay (CellTiter-Meiluncell Luminescent), tumor cell proliferation, H2228; details: Homo sapiens, NCI-H2228, 96 h
MDA-MB-231 = assay: Cell viability assay (CellTiter-Meiluncell Luminescent), tumor cell proliferation, MDA-MB-231; details: Homo sapiens, MDA-MB-231, 96 h
[1] = 24 hours of compound treatment, 50 nM and 500 nM
[2] = read-out: Inhibition Rate at 10 nM (%)
[3] = read-out: Inhibition Rate at 500 nM (%)

T1 sequence (P30291 whole entry): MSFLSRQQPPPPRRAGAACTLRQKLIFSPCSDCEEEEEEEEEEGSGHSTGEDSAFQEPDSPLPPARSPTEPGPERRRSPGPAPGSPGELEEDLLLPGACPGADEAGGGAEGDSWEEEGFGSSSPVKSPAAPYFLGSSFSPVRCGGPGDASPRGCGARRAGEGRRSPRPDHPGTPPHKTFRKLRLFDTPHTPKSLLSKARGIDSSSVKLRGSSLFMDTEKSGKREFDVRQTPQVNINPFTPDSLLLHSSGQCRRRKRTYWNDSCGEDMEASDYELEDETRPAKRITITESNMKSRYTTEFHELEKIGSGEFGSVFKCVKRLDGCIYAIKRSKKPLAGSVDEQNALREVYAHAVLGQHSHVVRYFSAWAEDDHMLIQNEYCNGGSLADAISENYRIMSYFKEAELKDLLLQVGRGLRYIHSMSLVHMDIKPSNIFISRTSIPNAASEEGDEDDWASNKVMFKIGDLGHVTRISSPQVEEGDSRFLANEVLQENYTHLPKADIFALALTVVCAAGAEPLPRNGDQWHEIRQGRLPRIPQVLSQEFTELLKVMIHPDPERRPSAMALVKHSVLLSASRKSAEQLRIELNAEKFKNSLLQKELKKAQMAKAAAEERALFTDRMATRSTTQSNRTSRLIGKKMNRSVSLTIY
T1 sequence (Q96SW2 whole entry): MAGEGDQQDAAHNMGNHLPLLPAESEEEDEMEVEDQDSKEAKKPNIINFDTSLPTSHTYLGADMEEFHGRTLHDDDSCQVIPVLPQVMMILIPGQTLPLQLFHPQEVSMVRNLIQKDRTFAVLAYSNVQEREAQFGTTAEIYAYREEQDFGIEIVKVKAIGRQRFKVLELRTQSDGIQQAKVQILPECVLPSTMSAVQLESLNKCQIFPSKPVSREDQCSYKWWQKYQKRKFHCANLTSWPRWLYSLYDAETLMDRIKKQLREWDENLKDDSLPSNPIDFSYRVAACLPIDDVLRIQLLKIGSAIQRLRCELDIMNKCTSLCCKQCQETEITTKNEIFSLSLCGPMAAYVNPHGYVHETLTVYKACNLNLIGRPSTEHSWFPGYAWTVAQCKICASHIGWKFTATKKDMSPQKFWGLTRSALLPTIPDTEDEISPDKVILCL
T1 sequence (Q16531 whole entry partner): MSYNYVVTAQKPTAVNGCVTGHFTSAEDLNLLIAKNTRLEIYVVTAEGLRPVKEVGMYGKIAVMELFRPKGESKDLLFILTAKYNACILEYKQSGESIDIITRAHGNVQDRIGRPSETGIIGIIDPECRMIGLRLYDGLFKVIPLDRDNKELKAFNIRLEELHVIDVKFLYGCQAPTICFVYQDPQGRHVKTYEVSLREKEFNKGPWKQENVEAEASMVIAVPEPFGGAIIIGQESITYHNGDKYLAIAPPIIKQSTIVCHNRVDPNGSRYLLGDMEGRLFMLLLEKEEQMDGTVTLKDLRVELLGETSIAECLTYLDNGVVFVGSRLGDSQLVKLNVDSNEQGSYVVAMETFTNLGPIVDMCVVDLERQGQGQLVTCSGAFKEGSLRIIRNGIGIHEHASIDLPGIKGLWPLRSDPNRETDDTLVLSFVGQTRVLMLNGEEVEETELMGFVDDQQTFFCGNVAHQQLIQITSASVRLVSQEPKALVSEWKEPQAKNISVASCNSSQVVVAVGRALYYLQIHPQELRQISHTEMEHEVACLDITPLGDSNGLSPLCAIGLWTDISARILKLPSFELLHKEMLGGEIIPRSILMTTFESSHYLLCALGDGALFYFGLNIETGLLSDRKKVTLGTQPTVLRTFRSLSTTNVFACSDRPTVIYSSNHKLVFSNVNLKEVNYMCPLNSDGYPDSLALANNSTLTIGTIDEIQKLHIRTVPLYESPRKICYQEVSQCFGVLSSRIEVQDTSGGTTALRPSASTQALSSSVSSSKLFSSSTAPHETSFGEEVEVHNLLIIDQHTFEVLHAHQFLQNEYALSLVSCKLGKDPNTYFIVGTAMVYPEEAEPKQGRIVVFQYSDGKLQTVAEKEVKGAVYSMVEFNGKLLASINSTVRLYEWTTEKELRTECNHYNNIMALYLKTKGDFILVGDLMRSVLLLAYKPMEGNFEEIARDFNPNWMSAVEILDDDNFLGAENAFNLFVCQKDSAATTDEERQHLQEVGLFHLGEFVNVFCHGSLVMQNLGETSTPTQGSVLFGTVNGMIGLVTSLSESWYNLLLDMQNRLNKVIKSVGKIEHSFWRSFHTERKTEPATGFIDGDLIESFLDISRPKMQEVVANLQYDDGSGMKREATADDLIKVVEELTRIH
T6 sequence (P15170 whole entry): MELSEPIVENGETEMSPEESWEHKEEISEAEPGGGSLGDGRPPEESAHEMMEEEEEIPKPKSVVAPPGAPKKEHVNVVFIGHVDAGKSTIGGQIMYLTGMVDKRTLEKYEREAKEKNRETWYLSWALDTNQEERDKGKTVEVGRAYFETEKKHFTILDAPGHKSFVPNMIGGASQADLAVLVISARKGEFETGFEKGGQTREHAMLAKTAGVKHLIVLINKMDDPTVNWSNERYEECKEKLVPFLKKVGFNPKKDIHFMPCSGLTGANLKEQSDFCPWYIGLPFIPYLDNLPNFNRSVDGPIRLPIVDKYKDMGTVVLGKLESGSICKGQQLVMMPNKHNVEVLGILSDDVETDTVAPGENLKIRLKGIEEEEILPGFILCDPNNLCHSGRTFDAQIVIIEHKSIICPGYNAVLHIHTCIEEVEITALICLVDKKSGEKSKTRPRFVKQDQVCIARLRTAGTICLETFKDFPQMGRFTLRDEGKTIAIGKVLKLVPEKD
T6 sequence (Q96SW2 whole entry): as the sequence (Q96SW2 whole entry) above
T6 sequence (Q16531 whole entry partner): as the sequence (Q16531 whole entry partner) above
T2 sequence (Q13422 whole entry): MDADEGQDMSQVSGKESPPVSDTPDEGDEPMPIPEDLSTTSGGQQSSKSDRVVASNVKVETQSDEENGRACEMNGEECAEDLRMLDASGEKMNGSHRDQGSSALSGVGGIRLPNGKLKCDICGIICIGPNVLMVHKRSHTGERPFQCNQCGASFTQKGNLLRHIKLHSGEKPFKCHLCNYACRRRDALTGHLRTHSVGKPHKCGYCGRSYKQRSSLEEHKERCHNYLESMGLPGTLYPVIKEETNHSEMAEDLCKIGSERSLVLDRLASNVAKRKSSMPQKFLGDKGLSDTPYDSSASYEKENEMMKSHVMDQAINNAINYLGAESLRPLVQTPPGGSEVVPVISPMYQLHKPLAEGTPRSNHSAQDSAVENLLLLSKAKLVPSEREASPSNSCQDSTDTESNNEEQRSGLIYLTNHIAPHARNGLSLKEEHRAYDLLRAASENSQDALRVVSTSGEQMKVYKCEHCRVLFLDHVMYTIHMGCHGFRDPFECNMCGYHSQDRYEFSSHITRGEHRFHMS
T2 sequence (Q96SW2 whole entry): as the sequence (Q96SW2 whole entry) above
T2 sequence (Q16531 whole entry partner): as the sequence (Q16531 whole entry partner) above
T5 sequence (P48729 whole entry): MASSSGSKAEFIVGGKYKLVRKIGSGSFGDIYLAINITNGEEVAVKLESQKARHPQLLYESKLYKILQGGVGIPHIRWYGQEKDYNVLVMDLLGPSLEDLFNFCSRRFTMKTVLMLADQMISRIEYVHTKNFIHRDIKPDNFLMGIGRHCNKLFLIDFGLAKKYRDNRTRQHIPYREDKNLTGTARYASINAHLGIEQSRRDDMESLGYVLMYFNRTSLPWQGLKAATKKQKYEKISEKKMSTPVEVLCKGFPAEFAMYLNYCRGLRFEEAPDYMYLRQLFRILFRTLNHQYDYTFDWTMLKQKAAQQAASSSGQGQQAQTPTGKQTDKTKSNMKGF
T5 sequence (Q96SW2 whole entry): as the sequence (Q96SW2 whole entry) above
T5 sequence (Q16531 whole entry partner): as the sequence (Q16531 whole entry partner) above
T4 sequence (Q9UKT9 whole entry): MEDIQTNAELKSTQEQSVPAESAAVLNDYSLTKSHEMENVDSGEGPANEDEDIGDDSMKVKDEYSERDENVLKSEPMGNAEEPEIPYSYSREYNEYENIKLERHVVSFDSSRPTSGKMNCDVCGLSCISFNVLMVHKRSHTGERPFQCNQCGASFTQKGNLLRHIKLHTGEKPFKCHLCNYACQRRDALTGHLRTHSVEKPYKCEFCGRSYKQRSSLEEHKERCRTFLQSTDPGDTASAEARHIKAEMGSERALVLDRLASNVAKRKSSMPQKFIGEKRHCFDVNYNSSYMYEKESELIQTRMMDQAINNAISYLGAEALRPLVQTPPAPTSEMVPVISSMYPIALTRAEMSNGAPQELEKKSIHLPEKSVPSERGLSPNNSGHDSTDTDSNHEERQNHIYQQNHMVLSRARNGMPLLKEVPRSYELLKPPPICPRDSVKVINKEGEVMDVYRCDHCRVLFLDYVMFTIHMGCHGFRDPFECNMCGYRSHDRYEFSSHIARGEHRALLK
T4 sequence (Q96SW2 whole entry): as the sequence (Q96SW2 whole entry) above
T4 sequence (Q16531 whole entry partner): as the sequence (Q16531 whole entry partner) above

SMILES | WEE1 substrate protein remaining % (WEE1) | IKZF1 substrate protein remaining % (IKZF1) | IKZF2 substrate protein remaining % (IKZF2) | IKZF3 substrate protein remaining % (IKZF3) | CK1α substrate protein remaining % (CK1α) | GSPT1 substrate protein remaining % (GSPT1) | IC50 (Jurkat) | IC50 (MV-4-11) | further results
O=C1CCN(N2Cc3cc(CN4CC=C(c5ccco5)CC4)ccc3C2=O)C(=O)N1 [GT-04874, 1-(5-((4-(furan-2-yl)-3,6-dihydropyridin-1(2H)-yl)methyl)-1-oxoisoindolin-2-yl)dihydropyrimidine-2,4(1H,3H)-dione] | A ("A" is defined as 0% ≤ substrate protein remaining % ≤ 80%) | A ("A" is defined as 0% ≤ substrate protein remaining % ≤ 80%) | B ("B" is defined as 80%< substrate protein remaining %≤ 100%) | A ("A" is defined as 0% ≤ substrate protein remaining % ≤ 80%) | B ("B" is defined as 80%< substrate protein remaining %≤ 100%) | A ("A" is defined as 0% ≤ substrate protein remaining % ≤ 80%) | 500 to 1000 nM | – | IC50 (MM.1S; read-out: inhibitory activity (IC50, nM) against tumor cells proliferation, MM.1S): 100 to 300 nM
Cc1cccc(N2CCN(Cc3ccc4c(c3)CN(N3CCC(=O)NC3=O)C4=O)CC2)c1 [GT-06770, 1-(1-oxo-5-((4-(m-tolyl)piperazin-1-yl)methyl)isoindolin-2-yl)dihydropyrimidine-2,4(1H,3H)-dione] | A ("A" is defined as 0% ≤ substrate protein remaining % ≤ 80%) | A ("A" is defined as 0% ≤ substrate protein remaining % ≤ 80%) | A ("A" is defined as 0% ≤ substrate protein remaining % ≤ 80%) | A ("A" is defined as 0% ≤ substrate protein remaining % ≤ 80%) | A ("A" is defined as 0% ≤ substrate protein remaining % ≤ 80%) | A ("A" is defined as 0% ≤ substrate protein remaining % ≤ 80%) | 500 to 1000 nM | 500 to 1000 nM | –
O=C1CCN(N2Cc3cc(CN4CCN(c5cc(Cl)cc(Cl)c5)CC4)ccc3C2=O)C(=O)N1 [GT-06776, 1-(5-((4-(3,5-dichlorophenyl)piperazin-1-yl)methyl)-1-oxoisoindolin-2-yl)dihydropyrimidine-2,4(1H,3H)-dione] | A ("A" is defined as 0% ≤ substrate protein remaining % ≤ 80%) | B ("B" is defined as 80%< substrate protein remaining %≤ 100%) | A ("A" is defined as 0% ≤ substrate protein remaining % ≤ 80%) | B ("B" is defined as 80%< substrate protein remaining %≤ 100%) | A ("A" is defined as 0% ≤ substrate protein remaining % ≤ 80%) | A ("A" is defined as 0% ≤ substrate protein remaining % ≤ 80%) | 500 to 1000 nM | 100 to 300 nM | –
O=C1CCN(N2Cc3cc(CN4CCC(c5cccc(Cl)c5Cl)CC4)ccc3C2=O)C(=O)N1 [GT-06893, 1-(5-((4-(2,3-dichlorophenyl)piperidin-1-yl)methyl)-1-oxoisoindolin-2-yl)dihydropyrimidine-2,4(1H,3H)-dione] | B ("B" is defined as 80%< substrate protein remaining %≤ 100%) | A ("A" is defined as 0% ≤ substrate protein remaining % ≤ 80%) | A ("A" is defined as 0% ≤ substrate protein remaining % ≤ 80%) | B ("B" is defined as 80%< substrate protein remaining %≤ 100%) | B ("B" is defined as 80%< substrate protein remaining %≤ 100%) | A ("A" is defined as 0% ≤ substrate protein remaining % ≤ 80%) | 500 to 1000 nM | 100 to 300 nM | –
O=C1CCN(N2Cc3cc(CN4CCC(c5cccc(F)c5Cl)CC4)ccc3C2=O)C(=O)N1 [GT-06894, 1-(5-((4-(2-chloro-3-fluorophenyl)piperidin-1-yl)methyl)-1-oxoisoindolin-2-yl)dihydropyrimidine-2,4(1H,3H)-dione] | B ("B" is defined as 80%< substrate protein remaining %≤ 100%) | A ("A" is defined as 0% ≤ substrate protein remaining % ≤ 80%) | B ("B" is defined as 80%< substrate protein remaining %≤ 100%) | B ("B" is defined as 80%< substrate protein remaining %≤ 100%) | B ("B" is defined as 80%< substrate protein remaining %≤ 100%) | A ("A" is defined as 0% ≤ substrate protein remaining % ≤ 80%) | 500 to 1000 nM | 300 to 500 nM | –
O=C1CCN(N2C(=O)c3ccc(CN4CCN(c5ncc(C(F)(F)F)cc5Cl)CC4)cc3C2=O)C(=O)N1 [GT-07026, 5-((4-(3-chloro-5-(trifluoromethyl)pyridin-2-yl)piperazin-1-yl)methyl)-2-(2,4-dioxotetrahydropyrimidin-1(2H)-yl)isoindoline-1,3-dione] | A ("A" is defined as 0% ≤ substrate protein remaining % ≤ 80%) | B ("B" is defined as 80%< substrate protein remaining %≤ 100%) | B ("B" is defined as 80%< substrate protein remaining %≤ 100%) | B ("B" is defined as 80%< substrate protein remaining %≤ 100%) | B ("B" is defined as 80%< substrate protein remaining %≤ 100%) | A ("A" is defined as 0% ≤ substrate protein remaining % ≤ 80%) | 500 to 1000 nM | – | –
O=C1CCN(N2Cc3cc(CN4CC=C(c5ncnc6sccc56)CC4)ccc3C2=O)C(=O)N1 [GT-08116, 1-(1-oxo-5-((4-(thieno[2,3-d]pyrimidin-4-yl)-3,6-dihydropyridin-1(2H)-yl)methyl)isoindolin-2-yl)dihydropyrimidine-2,4(1H,3H)-dione] | – | – | – | – | – | – | – | – | substrate protein remaining % WEE1 (WEE1; [1]): A (0% ≤ substrate protein remaining % ≤ 80%); substrate protein remaining % IKZF1 (IKZF1; [1]): A (0% ≤ substrate protein remaining % ≤ 80%); substrate protein remaining % IKZF2 (IKZF2; [1]): B (80%< substrate protein remaining %≤ 100%); substrate protein remaining % IKZF3 (IKZF3; [1]): A (0% ≤ substrate protein remaining % ≤ 80%); substrate protein remaining % CK1α (CK1α; [1]): A (0% ≤ substrate protein remaining % ≤ 80%); substrate protein remaining % GSPT1 (GSPT1; [1]): A (0% ≤ substrate protein remaining % ≤ 80%); inhibition at 0.01 µM (H292; [2]): 15 to 20%; inhibition at 0.5 µM (H292; [3]): 15 to 20%; inhibition at 0.01 µM (MM.1S; [2]): 10 to 20%; inhibition at 0.5 µM (MM.1S; [3]): 60 to 80%; inhibition at 0.01 µM (H2228; [2]): 15 to 20%; inhibition at 0.5 µM (H2228; [3]): 20 to 25%; inhibition at 0.01 µM (MV-4-11; [2]): 40 to 60%; inhibition at 0.5 µM (MV-4-11; [3]): 80 to 100%; inhibition at 0.01 µM (MDA-MB-231; [2]): 25 to 40%; inhibition at 0.5 µM (MDA-MB-231; [3]): 25 to 40%
